Marks after values point to notes of the source that are not given here.
Tests used:
Alternaria solani = assay: Test B: tomato early blight, preventive spray on tomato seedlings, visual disease rating; settings: for Test B rating (% disease control) / Test B rating (disease control): tomato early blight, 100 = 100% disease control; for Test B rating (% disease control): preventive spray, rating without asterisk; for Test B rating (disease control): 0 = no disease control relative to the controls; for pest or weed control at 200 µg/mL: Alternaria solani, in Solanum lycopersicum, read-out: Test B rating (disease control)
Botrytis cinerea = assay: Test A: tomato Botrytis, preventive spray on tomato seedlings, visual disease rating; settings: 100 = 100% disease control; for Test A rating (% disease control) / Test A rating (disease control): tomato Botrytis; for Test A rating (% disease control): preventive spray, 0 = no control relative to controls, rating without asterisk; for Test A rating (disease control) / pest or weed control at 200 µg/mL: 0 = no disease control relative to the controls; for pest or weed control at 200 µg/mL: Botrytis cinerea, in Solanum lycopersicum, read-out: Test A rating (disease control), tomato Botrytis
[1] = system: Blumeria graminis f. sp. tritici; assay: Test I: wheat powdery mildew, preventive spray on wheat seedlings, visual disease rating; settings: 100 = 100% disease control; for Test I rating (% disease control) / Test I rating (disease control): wheat powdery mildew; for Test I rating (% disease control): preventive spray, rating without asterisk; for Test I rating (disease control) / pest or weed control at 200 µg/mL: 0 = no disease control relative to the controls; for pest or weed control at 200 µg/mL: Blumeria graminis, in Triticum aestivum, read-out: Test I rating (disease control), wheat powdery mildew
Septoria tritici = assay: Test F: wheat leaf blotch, preventive spray on wheat seedlings, visual disease rating; type: in vivo; design: Test F rating (disease control), value marked *: concentration or dose not given beside the values; settings: for Test F rating (% disease control): preventive spray, rating without asterisk; for Test F rating (% disease control) / Test F rating (disease control) / pest or weed control at 200 µg/mL: 100 = 100% disease control; for Test F rating (disease control) / pest or weed control at 200 µg/mL: 0 = no disease control relative to the controls; for pest or weed control at 200 µg/mL: Zymoseptoria tritici; for Test F rating (disease control), value marked *: rating marked with asterisk (*), other test condition, not explained in the text shown
From the text: (§1) A hyphen (-) indicates no test results.

[2] = system: Puccinia recondita f. sp. tritici; assay: Test G: wheat leaf rust, spray after inoculation (curative) on wheat seedlings, visual disease rating; type: in vivo; settings: 100 = 100% disease control; for Test G rating (% disease control): spray after inoculation, rating without asterisk; for Test G rating (disease control) / pest or weed control at 200 µg/mL: sprayed after inoculation, 0 = no disease control
From the text: as §1

[3] = system: Puccinia recondita f. sp. tritici; assay: Test H: wheat leaf rust, preventive spray on wheat seedlings, visual disease rating; settings: 100 = 100% disease control; for Test H rating (% disease control) / Test H rating (disease control): wheat leaf rust; for Test H rating (% disease control): preventive spray, rating without asterisk; for Test H rating (disease control): sprayed the day before inoculation; for Test H rating (disease control) / pest or weed control at 200 µg/mL: 0 = no disease control; for pest or weed control at 200 µg/mL: read-out: Test H rating (disease control), wheat leaf rust, sprayed the day before inoculation
Septoria nodorum = assay: Test E: Septoria glume blotch, preventive spray on wheat seedlings, visual disease rating; settings: 100 = 100% disease control; for Test E rating (% disease control): Septoria glume blotch on wheat, preventive spray, rating without asterisk; for Test E rating (disease control): Septoria glume blotch; for Test E rating (disease control) / pest or weed control at 200 µg/mL: 0 = no disease control relative to the controls; for pest or weed control at 200 µg/mL: Parastagonospora nodorum, in Triticum aestivum, read-out: Test E rating (disease control), Septoria glume blotch

| Compound | Test B rating (disease control) (Alternaria solani) [%] | Test A rating (disease control) (Botrytis cinerea) [%] | Test I rating (disease control) [1] [%] | Test F rating (disease control) (Septoria tritici) [%] | Test G rating (disease control) [2] [%] | Test H rating (disease control) [3] [%] | Test E rating (disease control) (Septoria nodorum) [%] | further results |
| --- | --- | --- | --- | --- | --- | --- | --- | --- |
| Cc1nn(C)c(Nc2c(F)cc(F)cc2I)c1-c1ccc(F)cc1Br [compound 215] |  |  |  |  |  |  |  | Test B rating (% disease control) (Alternaria solani): 100%; Test A rating (% disease control) (Botrytis cinerea): 100%; Test I rating (% disease control) [1]: 100%; Test F rating (% disease control) (Septoria tritici): 100%; Test G rating (% disease control) [2]: 100%; Test H rating (% disease control) [3]: 100%; Test E rating (% disease control) (Septoria nodorum): 99% |
| COc1ccc(-c2c(C)nn(C)c2Oc2c(F)cc(C#N)cc2F)c(Cl)c1 [compound 41] | 99 | 100 | 99 | 100 | 92 | 100 | 100 |  |
| COc1cc(F)c(Nc2c(-c3ccc(Cl)cc3Cl)c(C)nn2C)c(F)c1 [compound 16] | 98 | 99 | 99 | 98 | 98 | 99 | 84 |  |
| Cc1nn(C)c(Nc2ccc(F)cc2F)c1-c1c(F)cccc1F [compound 49] | 100 | 100 | 100 | 98 | 0 | 83 | 80 |  |
| Cc1nn(C)c(Oc2ccc(C#N)cc2F)c1-c1c(F)cccc1Cl [compound 116] | 33 | 100 | 100 | 100 | 0 | 100 | 99 |  |
| COc1ccc(-c2c(C)nn(C)c2Oc2c(F)cc(C#N)cc2F)c(F)c1 [compound 14] | 100 | 99 | 99 | 100 | 37 | 100 | 99 |  |
| Cc1nn(C)c(Oc2ccc(C#N)cc2Cl)c1-c1ccc(F)cc1F [Compound 140, 3-chloro-4-[[4-(2,4-difluorophenyl)-1,3-dimethyl-1H-pyrazol-5-yl]oxy]benzonitrile] |  |  |  |  |  |  |  | pest or weed control at 200 µg/mL (Alternaria solani): 0%; pest or weed control at 200 µg/mL (Botrytis cinerea): 67%; pest or weed control at 200 µg/mL [1]: 97%; pest or weed control at 200 µg/mL (Septoria tritici): 100%; pest or weed control at 200 µg/mL [2]: 9%; pest or weed control at 200 µg/mL [3]: 97%; pest or weed control at 200 µg/mL (Septoria nodorum): 0% |
| Cc1nn(C)c(Nc2ccc(F)cc2Br)c1-c1c(Cl)cccc1Cl [compound 114] | 0 | 99 | 100 | 100 | 0 | 91 | 0 |  |
| COc1ccc(-c2c(C)nn(C)c2Nc2c(Cl)cc(F)cc2Cl)c(F)c1 [compound 194] |  |  |  |  |  |  |  | Test B rating (% disease control) (Alternaria solani): 93%; Test I rating (% disease control) [1]: 63%; Test F rating (% disease control) (Septoria tritici): 100%; Test G rating (% disease control) [2]: 0%; Test H rating (% disease control) [3]: 95%; Test E rating (% disease control) (Septoria nodorum): 87% |
| Cc1nn(C)c(Nc2ccc(Cl)cc2Cl)c1-c1c(F)cccc1Cl [compound 78] | 65 | 99 | 100 |  | 9 | 99 | 0 | Test F rating (disease control), value marked * (Septoria tritici): 99* % |
| Cc1nn(C)c(Nc2ccc(F)cc2Br)c1-c1ccc(F)cc1Cl [Compound 73, N-(2-bromo-4-fluorophenyl)-4-(2-chloro-4-fluorophenyl)-1,3-dimethyl-1H-pyrazol-5-amine] |  |  |  |  |  |  |  | pest or weed control at 200 µg/mL (Alternaria solani): 99%; pest or weed control at 200 µg/mL (Botrytis cinerea): 100%; pest or weed control at 200 µg/mL [1]: 100%; pest or weed control at 200 µg/mL (Septoria tritici): 100%; pest or weed control at 200 µg/mL [2]: 90%; pest or weed control at 200 µg/mL [3]: 100%; pest or weed control at 200 µg/mL (Septoria nodorum): 78% |
| Cc1nn(C)c(Nc2c(F)cc(C#N)cc2F)c1-c1c(F)cc(F)cc1F [compound 26] | 100 | 100 | 100 | 100 | 41 | 99 | 99 |  |
| Cc1nn(C)c(Oc2ccc(C#N)cc2F)c1-c1ccc(Cl)cc1F [compound 119] | 94 | 99 | 99 | 100 | 0 | 91 | 94 |  |
| COc1cc(F)c(-c2c(C)nn(C)c2Nc2ccc(F)cc2F)c(F)c1 [Compound 6, 4-(2,6-difluoro-4-methoxyphenyl)-N-(2,4-difluorophenyl)-1,3-dimethyl-1H-pyrazol-5-amine] |  |  |  |  |  |  |  | pest or weed control at 200 µg/mL (Alternaria solani): 100%; pest or weed control at 200 µg/mL (Botrytis cinerea): 98%; pest or weed control at 200 µg/mL [1]: 100%; pest or weed control at 200 µg/mL (Septoria tritici): 93%; pest or weed control at 200 µg/mL [2]: 92%; pest or weed control at 200 µg/mL [3]: 100%; pest or weed control at 200 µg/mL (Septoria nodorum): 99% |
| Cc1nn(C)c(Nc2c(F)cc(Br)cc2Br)c1-c1ccc(F)cc1F [compound 211] |  |  |  |  |  |  |  | Test B rating (% disease control) (Alternaria solani): 99%; Test A rating (% disease control) (Botrytis cinerea): 98%; Test I rating (% disease control) [1]: 100%; Test F rating (% disease control) (Septoria tritici): 100%; Test G rating (% disease control) [2]: 82%; Test H rating (% disease control) [3]: 100%; Test E rating (% disease control) (Septoria nodorum): 99% |
| COc1ccc(Oc2c(-c3ccc(F)cc3Cl)c(C)nn2C)c(F)c1 [compound 5] | 100 | 98 | 99 |  |  | 100 | 97 | Test F rating (disease control), value marked * (Septoria tritici): 97* % |
| COc1ccc(-c2c(C)nn(C)c2C(O)c2c(F)cc(Cl)cc2F)c(Cl)c1 (racemic) [compound 224] |  |  |  |  |  |  |  | Test B rating (% disease control) (Alternaria solani): 100%; Test I rating (% disease control) [1]: 94%; Test F rating (% disease control) (Septoria tritici): 100%; Test G rating (% disease control) [2]: 54%; Test H rating (% disease control) [3]: 100%; Test E rating (% disease control) (Septoria nodorum): 89% |
| Cc1nn(C)c(C(O)c2ccc(F)cc2Br)c1-c1ccc(F)cc1Cl (stereo not drawn) [Compound 153, α-(2-bromo-4-fluorophenyl)-4-(2-chloro-4-fluorophenyl)-1,3-dimethyl-1H-pyrazole-5-methanol] |  |  |  |  |  |  |  | pest or weed control at 200 µg/mL (Alternaria solani): 0%; pest or weed control at 200 µg/mL [1]: 0%; pest or weed control at 200 µg/mL (Septoria tritici): 100%; pest or weed control at 200 µg/mL [2]: 0%; pest or weed control at 200 µg/mL [3]: 96%; pest or weed control at 200 µg/mL (Septoria nodorum): 0% |
| CCOc1ccc(-c2c(C)nn(C)c2Nc2ccc(F)cc2F)c(F)c1 [Compound 193] |  |  |  |  |  |  |  | Test B rating (% disease control) (Alternaria solani): 58%; Test I rating (% disease control) [1]: 92%; Test F rating (% disease control) (Septoria tritici): 100%; Test G rating (% disease control) [2]: 0%; Test H rating (% disease control) [3]: 27%; Test E rating (% disease control) (Septoria nodorum): 0% |
| Cc1nn(C)c(C(O)c2ccc(Cl)cc2F)c1-c1ccc(F)cc1Cl (racemic) [compound 177] | 0 | 99 | 48 |  | 0 | 0 | 0 |  |
| Cc1nn(C)c(C(O)c2ccc(C#N)cc2F)c1-c1ccc(F)cc1Cl (racemic) [compound 179] |  |  |  |  |  |  |  | Test B rating (% disease control) (Alternaria solani): 16%; Test A rating (% disease control) (Botrytis cinerea): 96%; Test I rating (% disease control) [1]: 0%; Test G rating (% disease control) [2]: 9%; Test H rating (% disease control) [3]: 99%; Test E rating (% disease control) (Septoria nodorum): 0% |
| Cc1nn(C)c(C(O)c2c(F)cc(F)cc2F)c1-c1ccc(F)cc1Cl (racemic) [compound 178] | 33 | 100 | 74 |  | 98 | 100 | 0 |  |

Source: patent US20170150719A1, “FUNGICIDAL PYRAZOLES AND THEIR MIXTURES” (E I DU PONT DE NEMOURS AND COMPANY, priority 2010, published 2017)
